Data reported in publication PMC3530466, “Recombinant Expression of Margatoxin and Agitoxin-2 in Pichia pastoris: An Efficient Method for Production of KV1.3 Channel Blockers” (PLoS ONE, 2012).
Bridge positions count the residues as written; N and C are the ends. Ends that are not written are not given here.

Experiments:
[1] = test system: human T lymphocytes; experiment: Proliferation of T lymphocytes, [3H] thymidine incorporation; format: cell-based; conditions: freshly-isolated human T lymphocytes, 60 ng/ml anti-CD3 antibody (OKT3), pre-incubated 45 min at 37°C, cultured 72 h, [3H] thymidine last 16–18 h; three independent experiments with cells from different donors
Description: (§1) L929 mouse fibroblast cells stably expressing mouse KV1.1 or mouse KV1.3 channels were kind gifts from Dr. George Chandy (University of California, Irvine). The cells were maintained in DMEM medium (Invitrogen, Carlsbad, CA, USA) supplemented with 10 IU/ml penicillin, 0.1 mg/ml streptomycin, 2 mM L-glutamine, 10% heat-inactivated fetal bovine serum, and 0.5 mg/ml G418 (EMD Chemicals, Gibbstown, NJ, USA). Freshly prepared buffy coats were purchased from the Gulf Coast Regional Blood Center (Houston, TX, USA) under a Baylor College of Medicine Institutional Review Board-approved protocol. Mononuclear cells were isolated from the buffy coats using Histopaque-1077 gradients (Sigma, St Louis, MI, USA) and used immediately or stored frozen in liquid nitrogen.
Mononuclear cells (10^6/ml) were plated into 96-well microplates and pre-incubated with peptidic KV1.3 blockers for 45 min at 37°C in RPMI medium (Invitrogen) supplemented with 100 IU/ml penicillin, 0.1 mg/ml streptomycin, 2 mM L-glutamine, 1 mM sodium pyruvate, 1% non-essential amino acids, 1% RPMI vitamins, […] β-mercaptoethanol, and 1% heat-inactivated fetal bovine serum. […] [^3H] thymidine incorporation into the DNA of proliferating cells was measured using a β-scintillation counter (Beckman Coulter, Brea, CA, USA).

[2] = target: T1, mouse KV1.1 (mKV1.1) channels stably expressed in L929 cells (Mus musculus, UniProt P16388); experiment: Inhibition of mKV1.1 currents, whole-cell patch clamp; format: cell-based; conditions: room temperature, 200-ms pulses from -80 mV to 40 mV every 30 s, Hill fit to reduction of peak current at 40 mV, each data point mean of 3–5 determinations
T1 construct: expressed in transfected cells
Description: as §1
(§2) Experiments were conducted at room temperature using the whole-cell patch-clamp technique, as described previously. […] The bath solution contained (in mM): 160 NaCl, 4.5 KCl, 2 CaCl2, 1 MgCl2, 10 HEPES, pH 7.2, 300 mOsm. KV channel currents were elicited every 30 s by 200-ms depolarizing pulses from a holding potential of –80 mV to 40 mV. K d values and Hill coefficients were determined by fitting the Hill equation to the reduction of peak current measured at 40 mV.

[3] = target: T2, mouse KV1.3 (mKV1.3) channels stably expressed in L929 cells (Mus musculus, UniProt P16390); experiment: Inhibition of mKV1.3 currents, whole-cell patch clamp; format: cell-based; conditions: room temperature, each data point mean of 3–5 determinations
T2 construct: expressed in transfected cells
Description: as §1, §2

[4] = test system: human KV1.3 channel; conditions: by blocking the central ion-conducting pore; ref [21], [22], [43]; cited from earlier work
Description: Some α-KTxs are of significant interest because they potently block the human KV1.3 channel. […] However, despite their similar 3D fold and high sequence homology, the affinity of α-KTx toxins for KV1.3 varies over six orders of magnitude from picomolar to micromolar. Moreover, many of these toxins inhibit a number of different subtypes KV channels with high affinity, an undesirable attribute for peptides being considered for therapeutic use due to the ...

[5] = test system: T lymphocytes; conditions: native toxins; ref [33], [34]; read-out: IC50 range previously described, T lymphocyte proliferation; cited from earlier work
Description: We next tested the ability of each recombinant peptides to block the proliferation of freshly-isolated human T lymphocytes, which are sensitive to KV1.3 channel blockers. […] These concentrations are within the range previously described for MgTx (∼5 nM) and AgTx2 (>5 nM), [34]. Thus the biological activities of rAgTx2 and rMgTx produced in P.pastoris are similar to the native toxins.

[6] = test system: KV1.1; conditions: ref [22], [30], [31]; cited from earlier work
Description: We therefore measured the ability of rAgTx2 and rMgTx to block mouse KV1.3 (mKV1.3) and mouse KV1.1 (mKV1.1) channels stably expressed in L929 cells. […] The recombinant rAgTx2 and rMgTx inhibited mKV1.3 with simi ...

[7] = test system: KV1.3; conditions: cited from earlier work; for potency of native toxin on KV1.3: native toxins, ref [31]; for block of KV1.3 channels: ref [22], [30], [31]
Description: Voltage-gated potassium (KV) channels are expressed in a wide range of cell types and tissues where they play key roles in physiological processes such as cell excitability, muscle contraction, and regulation of cardiac function. KV channels are composed of four α subunits that together form a functional channel. There are […] subfamilies of KV channels, with KV1.3 being one of eight subtypes in the KV1.x subfamily. […] We therefore measured the ability of rAgTx2 and rMgTx to block mouse KV1.3 (mKV1.3) and mouse KV1.1 (mKV1.1) channels stably expressed in L929 cells. […] The recombinant rAgTx2 and rMgTx inhibited mKV1.3 with simi ... || KV channels have diverse physiological functions; they play important roles in cell excitability, muscle contraction, regulation of neuronal and cardiac electrical functions, and propagation of action potentials. […] This has led to the hypothesis that compounds that selectively target KV1.3 channels could be used to treat autoimmune diseases. Consistent with this idea, ... || (+ 1 further places)

[8] = test system: acid sensing ion channel 1a; conditions: ref [49]; cited from earlier work
Description: Recombinant production is the most cost-effective method for producing disulfide-rich peptides. The most common host for heterologous expression of venom peptides is E. coli, [47] but this often necessitates oxidative refolding of the peptides as the redox environment of the E. coli cytoplasm is not favorable for disulfide-bond formation. Higher yields of correctly folded toxin can often be obtained by exporting the peptides into periplasm of E. coli, where the cellular machinery for disulfide-bond formation is located [17]–[19]; however, the overall yield of recombi ...

[9] = 200-ms pulses from -80 mV to 40 mV every 30 s, Hill fit to reduction of peak current at 40 mV

T2 sequence (P16390 whole entry): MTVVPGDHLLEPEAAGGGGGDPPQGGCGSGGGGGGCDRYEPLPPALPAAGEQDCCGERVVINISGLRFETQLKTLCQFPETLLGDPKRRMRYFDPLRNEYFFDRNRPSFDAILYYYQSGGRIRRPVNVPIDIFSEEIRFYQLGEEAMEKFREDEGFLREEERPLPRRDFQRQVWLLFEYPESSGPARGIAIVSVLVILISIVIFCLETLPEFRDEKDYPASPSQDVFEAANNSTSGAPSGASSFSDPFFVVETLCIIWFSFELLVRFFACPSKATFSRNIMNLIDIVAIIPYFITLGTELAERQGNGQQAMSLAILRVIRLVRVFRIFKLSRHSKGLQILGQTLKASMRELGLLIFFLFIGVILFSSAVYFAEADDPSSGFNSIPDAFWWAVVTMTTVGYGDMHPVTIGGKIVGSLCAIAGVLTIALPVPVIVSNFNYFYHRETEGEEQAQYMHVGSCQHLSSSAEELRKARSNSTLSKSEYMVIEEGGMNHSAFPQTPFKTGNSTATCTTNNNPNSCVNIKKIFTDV
T1 sequence (P16388 whole entry): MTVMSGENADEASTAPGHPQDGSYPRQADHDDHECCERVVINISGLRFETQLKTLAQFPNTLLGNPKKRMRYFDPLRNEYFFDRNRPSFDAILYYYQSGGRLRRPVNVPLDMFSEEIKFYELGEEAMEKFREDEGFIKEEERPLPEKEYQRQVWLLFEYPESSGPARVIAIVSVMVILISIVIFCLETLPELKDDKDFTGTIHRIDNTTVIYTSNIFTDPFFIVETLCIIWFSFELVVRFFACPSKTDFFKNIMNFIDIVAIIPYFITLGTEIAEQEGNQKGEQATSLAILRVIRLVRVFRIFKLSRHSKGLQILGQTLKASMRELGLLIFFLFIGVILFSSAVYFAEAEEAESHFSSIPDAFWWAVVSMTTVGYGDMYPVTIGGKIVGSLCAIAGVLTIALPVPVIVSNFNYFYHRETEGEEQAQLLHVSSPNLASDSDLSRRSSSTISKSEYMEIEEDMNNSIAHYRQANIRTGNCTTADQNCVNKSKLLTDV

Molecule CC[C@H](C)[C@@H]1NC(=O)[C@@H]2CSSC[C@@H]3NC(=O)[C@H](CCCCN)NC(=O)[C@H](CCCNC(=N)N)NC(=O)[C@H](CC(N)=O)NC(=O)[C@H](CCSC)NC(=O)[C@H](CSSC[C@H](NC(=O)[C@H](CO)NC(=O)[C@@H](NC(=O)[C@H](CC(N)=O)NC(=O)[C@@H](NC(=O)[C@@H]4CCCN4C(=O)[C@@H](NC(=O)CNC(=O)[C@H](Cc4c[nH]cn4)NC(=O)[C@H](Cc4c[nH]cn4)NC(=O)[C@H](Cc4c[nH]cn4)NC(=O)[C@H](Cc4c[nH]cn4)NC(=O)[C@H](Cc4c[nH]cn4)NC(=O)[C@H](Cc4c[nH]cn4)NC(=O)[C@H](Cc4ccccc4)NC(=O)[C@@H](N)CCC(=O)O)C(C)C)[C@@H](C)CC)C(C)C)C(=O)N[C@@H]([C@@H](C)O)C(=O)NCC(=O)N[C@@H](CO)C(=O)N4CCC[C@H]4C(=O)N[C@@H](CCC(N)=O)C(=O)N2)NC(=O)[C@H](CCCCN)NC(=O)CNC(=O)[C@H](Cc2ccccc2)NC(=O)[C@H](CCCNC(=N)N)NC(=O)[C@H](CCSC)NC(=O)CNC(=O)[C@H](C)NC(=O)[C@H](CC(=O)O)NC(=O)[C@H](CCCCN)NC(=O)[C@H](CSSC[C@@H](C(=O)N[C@H](C(=O)N2CCC[C@H]2C(=O)N[C@@H](CCCCN)C(=O)O)[C@@H](C)O)NC(=O)[C@H](Cc2c[nH]cn2)NC3=O)NC(=O)[C@@H]2CCCN2C(=O)[C@H](CCCCN)NC1=O [rAgTx2, recombinant agitoxin-2] has an IC50 [1] of roughly 40 nM, an IC50 [2] of 0.144 ± 0.03 nM and an IC50 [3, 9] of 0.201 ± 0.039 nM.

Molecule “EFHHHHHHTIINVKCTSPKQCLPPCKAQFGQSAGAACMNGKCKCYPH (disulfide 15-37, 21-42, 25-44) [rMgTx-K28A]” has an IC50 ([3]; K28A mutant, Hill fit to peak current at 40 mV) of 216 ± 24 nM.

“EFHHHHHHTIINVKCTSPKQCLPPCKAQFGQSAGAKCMNGKCKCYPH (disulfide 15-37, 21-42, 25-44) [rMgTx, recombinant margatoxin]” showed an IC50 [1] of roughly 6 nM, an IC50 [2] of 0.396 ± 0.041 nM and an IC50 [3, 9] of 0.097 ± 0.003 nM.

In the case of agitoxin-2 [AgTx2], the “inhibition of KV1.3” value [4] is listed as “potently inhibit KV1.3”, the IC50 [5] is listed as greater than 5 nM and the “block of KV1.1 channels” value [6] is listed as “picomolar concentrations”. For the same molecule, the “potency of native toxin on KV1.3” value [7] was 200 pM and the “block of KV1.3 channels” value [7] was “picomolar concentrations”.

For “PcTx1 (EDCIPKWKGCVNRHGDCCEGLECWKRRRSFEVCVPKTPKT; ends and bridges not checked; cysteine pairing not given here; UniProt P60514 1-40, looked up)”, the “block of acid sensing ion channel 1a” value [8] is given as “potent blocker”.

In the case of “margatoxin (TIINVKCTSPKQCLPPCKAQFGQSAGAKCMNGKCKCYPH; UniProt P40755 1-39, looked up) [MgTx]”, the “inhibition of KV1.3” value [4] is listed as “potently inhibit KV1.3”, the IC50 [5] is listed as roughly 5 nM and the “block of KV1.1 channels” value [6] is listed as “picomolar concentrations”. The “potency of native toxin on KV1.3” value [7] was 30−100 pM and the “block of KV1.3 channels” value [7] was “picomolar concentrations”.

In the case of “BmKTX: native peptide, parent of ADWX-1 (VGINVKCKHSGQCLKPCKDAGMRFGKCINGKCDCTPK; ends and bridges not checked; cysteine pairing not given here; UniProt Q9NII7 23-59, looked up)”, the IC50 ([7]; ref [44]) is listed as 0.15 nM.
